Assay results reported in article PMC5571359, “Screening the Medicines for Malaria Venture Pathogen Box across Multiple Pathogens Reclassifies Starting Points for Open-Source Drug Discovery” (Antimicrobial Agents and Chemotherapy, 2017).
Read-outs that look alike come from different tables or passages of the source.

Key:
HepG2 = conditions: ref PBox supporting information, cited from earlier work
T. brucei brucei = conditions: ref Pbox supporting information; read-out: T.b. brucei Pbox IC50; cited from earlier work
[1] = test system: L. donovani (macrophages); design: method as in Pbox supporting information; conditions: ref Pbox supporting information; cited from earlier work
T. brucei rhodesiense = conditions: ref Pbox supporting information; read-out: T .b. rohdensie Pbox IC50; cited from earlier work
[2] = test system: L. donovani axenic amastigotes; design: method as in PBox supporting information; conditions: ref PBox supporting information; cited from earlier work
infected PMM = test system: infected PMM; design: method as in Pbox supporting information; conditions: ref Pbox supporting information, read-out: Toxicity on infected PMM Pbox IC50; cited from earlier work
[3] = test system: L. infanium (macrophages); design: method as in Pbox supporting information; conditions: ref Pbox supporting information; cited from earlier work
[4] = test system: T. cruzi C4 β-galactosidase reporter parasite in MRC 5SV2 host cells; conditions: cited from earlier work
L. major = test system: L. major; design: method as in Pbox supporting information; conditions: ref Pbox supporting information; cited from earlier work
[5] = test system: T. b. brucei 427 bloodstream trypanosomes; test: T. b. brucei resazurin viability assay; format: cell-based, Trypanosoma brucei brucei; conditions: for IC50: Trypanosoma brucei
HEK293 cells = test: HEK293 resazurin cell cytotoxicity assay; conditions: Homo sapiens
[6] = test system: L. donovani MHOM/IN/80/DD8 intracellular amastigotes; test: Leishmania donovani intracellular amastigote assay in THP-1 cells; format: cell-based; conditions: Leishmania donovani
[7] = test system: Plasmodium falciparum 3D7 asexual blood stage; test: microbe, parasite or virus in culture
[8] = test system: T. cruzi intracellular amastigotes; test: Intracellular anti-Trypanosoma cruzi image-based assay (amastigotes); format: cell-based
[9] = test system: NF54-pfs16-LUC-GFP stage IV gametocytes; test: Plasmodium falciparum late stage gametocyte (LSG) image-based assay; format: cell-based; conditions: Plasmodium falciparum, NF54, read-out: Antiplasmodial IC50 (GAM / LSG), PBox compounds, stage IV gametocytes, single determination
P. falciparum ABS = conditions: ChEMBL Data, TCMDC set, P. falciparum; read-out: TCMDC (ref 93) EX50; cited from earlier work
[10] = HEK293 resazurin cell cytotoxicity assay; conditions: human
[11] = ref Pbox supporting information, read-out: T. cruzi Pbox IC50
[12] = read-out: T b.brucei Discovery Biology IC50
[13] = HEK293, read-out: HEK % Inhibition 20uM/IC50 Discovery Biology
[14] = Trypanosoma cruzi, intracellular amastigotes, read-out: T cruzi Discovery Biology IC50
[15] = 3D7, read-out: Antiplasmodial IC50 (ABS), PBox compounds, P. falciparum 3D7
[16] = read-out: IC50 T. brucei brucei (Discovery Biology)
[17] = Trypanosoma cruzi, 48 h, read-out: IC50 T. cruzi (Discovery Biology)

Row | SMILES | HepG2 PBox CC20 (HepG2) | IC50 (T. brucei brucei) | IC50 [1] | IC50 (T. brucei rhodesiense) | IC50 [2] | IC50 (infected PMM) | IC50 [3] | IC50 [4, 11] | IC50 (L. major) | IC50 (HEK293 cells; [13]) | further results
1 | Cc1nc(-c2ccccn2)nc(NCCc2ccc(S(C)(=O)=O)cc2)c1Cl [MMV658993] | 27.9 µM | > 32 µM | > 30 µM | > 32 µM | 2050 nM | 30 µM | > 32 µM | 4.44 µM |  |  | 
2 | c1ccc(Oc2ccc(-c3cc(N4CCOCC4)[nH]n3)cc2)cc1 [MMV045105] | 7.5 µM | 3.45 µM | > 30 µM | 1.29 µM | 3870 nM | > 30 µM | 21.5 µM | 16 µM |  |  | 
3 | CC(C)(C)OC(=O)N1CCN(c2cc(-c3ccc(Oc4ccccc4)cc3)n[nH]2)CC1 [MMV676057] | 4.0 µM | 3.89 µM | > 10 µM | 2.7 µM | 1320 nM | 20 µM | 10.2 µM | 9.37 µM | 13 µM |  | 
4 | Nc1ccc2ncnc(Nc3ccc(OCc4cccc(F)c4)c(Cl)c3)c2c1 [MMV688273] | 9.7 µM | > 32 µM |  | 13.1 µM |  |  | > 32 µM | 4.03 µM | 10.4 µM |  | 
5 | O=C(CN1CCOCC1)Nc1ccc2ncnc(Nc3ccc(OCc4cccc(F)c4)c(Cl)c3)c2c1 [MMV688274] | 10.9 µM | 5.31 µM |  | 3.07 µM |  |  | > 32 µM | 0.95 µM | 12.4 µM |  | 
6 | COc1ccc(C(=N)N)cc1-c1cn(-c2ccc(C(=N)N)cc2)nn1 [MMV675998] | 5.5 µM | 0.25 µM | > 30 µM | < 0.13 µM | 14300 nM | 30 µM | > 32 µM | 21.5 µM |  | > 20 µM | IC50 [5, 12]: 270 nM
7 | COC(=O)c1cccc2oc(-c3cccc(OC)c3NC(=O)c3cc(-c4ccccc4)on3)nc12 [MMV676186] | >80 µM | > 32 µM | > 30 µM | > 32 µM | 3950 nM | > 30 µM | > 32 µM | > 32 µM |  |  | 
8 | Cc1ncc(-c2ccnc(Nc3ccc(S(C)(=O)=O)cc3)n2)n1C(C)C [MMV676604] | 0.179 µM | 0.26 µM |  | < 0.13 µM |  |  | 1.15 µM | 1.08 µM | 3.15 µM |  | IC50 ([6]; THP-1, intracellular amastigotes, some values marked *, read-out: L, donovani Discovery Biology IC50): 4.82 µM; IC50 ([7]; 3D7, read-out: Pf 3D7 Discovery Biology IC50, P. falciparum 3D7 asexual blood stage): 3.23 µM; IC50 [5, 12]: 140 nM; IC50 (HEK293 cells; HEK293, read-out: HEK % Discovery Biology IC50): 2.7 µM; IC50 [8, 14]: 1180 nM
9 | O=C(Nc1ccccc1-c1nc2c(C(=O)O)cccc2o1)c1ccccc1 [MMV676162] | >80 µM | > 32 µM | > 30 µM | > 32 µM | 400 nM | > 30 µM | > 32 µM | > 32 µM |  |  | 
10 | c1ccc(-c2nc(NC3CCCCC3)cc(C3CC3)n2)nc1 [MMV021013] |  |  |  |  |  |  |  |  |  |  | IC50 [9]: 190 nM; IC50 ([6]; THP-1, read-out: IC50 L. donovani (Discovery Biology), PBox compounds, intracellular amastigotes): 1.48 µM; EC50 (P. falciparum ABS): 730 nM; IC50 [7, 15]: 0.46 µM; IC50 [5, 16]: 3510 nM; inhibition at 20 µM (HEK293 cells; [13]): 83%; selectivity ratio at 72 h [10]: > 5; IC50 [8, 17]: 1670 nM
11 | Clc1ccc(Cl)c(CO[C@H]2CCCC[C@@H]2n2ccnc2)c1 [MMV676048] | 37.1 µM | > 32 µM | 12.8 µM | 22.9 µM | 15600 nM | 30 µM | 16.2 µM | 1.36 µM |  | > 20 µM | Emax ([8]; Trypanosoma cruzi, PBox kinetoplastid set compounds active against T. cruzi alone, read-out: Emax against T. cruzi (subefficacious effect)): < 100%; IC50 [8, 14]: 3210 nM
12 | c1ccc(Oc2ccc(-c3cc(CN4CCOCC4)[nH]n3)cc2)cc1 [MMV676161] | 28.9 µM | 15.1 µM | 26.1 µM | 5.26 µM | 9700 nM | 30 µM | > 32 µM | 16 µM |  |  | 
13 | Cc1nc(-c2ccccn2)nc(N2CCC(Cc3ccccc3)C2)c1Cl (stereo not drawn) [MMV659004] | 10.2 µM | 6.61 µM | 4.2 µM | 5.62 µM | 30 nM | 16.7 µM | 4.03 µM | 0.97 µM | 8.96 µM | > 20 µM | IC50 [9]: 670 nM; IC50 [7, 15]: 1.86 µM
14 | FC(F)(F)c1cc(NCCc2ccccc2)nc(-c2ccccn2)n1 [MMV659010] | >80 µM | > 32 µM | 5.17 µM | 27.2 µM | 250 nM | 30 µM | 16.2 µM | 4.25 µM |  | > 20 µM | IC50 [9]: 1710 nM; IC50 [7, 15]: > 8 µM
15 | Clc1cccc(CO[C@H]2CCc3ccccc3[C@@H]2n2ccnn2)c1 [MMV676159] | >80 µM | > 32 µM | > 30 µM | > 32 µM | 6600 nM | > 30 µM | > 32 µM | 3.08 µM |  |  | 
16 | Cc1nc(-c2ccccn2)nc(N(C)CCc2ccccc2)c1Cl [MMV658988] | 11.3 µM | 14.9 µM | 2.6 µM | 11.8 µM | 20 nM | 16.7 µM | 4.06 µM | 0.88 µM |  | > 20 µM | IC50 [9]: 300 nM; IC50 [7, 15]: 2.18 µM; activity against T. cruzi at 8 μM in the Discovery Biology assay ([8]; 8 μM): no activity; IC50 ([4]; 7 days exposure, ref PBox supporting information, read-out: T. cruzi IC50 in the PBox supporting information file): < 1 µM
17 | CN1CCN(S(=O)(=O)c2ccc(-c3ccc4c(Nc5ncc(Cl)cn5)ccnc4c3)cc2)CC1 [MMV688283] | 8.0 µM | 3.78 µM |  | 0.96 µM |  |  | 2.54 µM | 3.81 µM | 8.51 µM | > 20 µM | IC50 [9]: 4100 nM; IC50 [7, 15]: 0.66 µM; IC50 [5, 12]: 5290 nM
18 | Nc1nc2ccc(-c3cncc(Oc4ccc(F)cc4)c3)cc2[nH]1 [MMV687248] |  |  |  |  |  |  |  |  |  |  | CC50 (HepG2; read-out: HepG2 PBox CC50 µM, HepG2 cytotoxicity): 31.5 µM; IC50 ([7]; 3D7, read-out: Pf 3D7 Discovery Biology IC50 µM, P. falciparum 3D7 asexual blood stage, Discovery Biology): 1.52 µM; selectivity index (SI) T. brucei brucei versus HEK293 ([5]; HEK293): > 20; selectivity index (SI) T. brucei brucei versus HEPG2 ([5]; HEPG2 (PBox data)): > 20; IC50 [5, 16]: 1050 nM; selectivity ratio at 72 h [10]: > 5; IC50 [8, 17]: 4000 nM
